Experimental data: article PMC11385693, “Synthesis of ferrocenyl benzimidazole derivatives as novel anti-Toxoplasma gondii agents” (New Journal of Chemistry, 2024)
Values joined by “and” are separate entries in the source; they are usually repeats but may differ in a detail not shown here. Identical values can stand only once. Like-named read-outs stand apart in the source and are kept apart here.

Tests used:
Cyclic voltammetry = assay type: physicochemical
Description: Ferrocene is known to undergo reversible oxidation and reduction, cycling between its 3^+ ferrocenium and the 2^+ ferrocene (Fc) states.[49,50] This redox behaviour leads to the generation of reactive oxygen species (ROS) through Fenton like reactions, which can in turn lead to parasite death.[51–53] Cyclic voltammetry was used to determine if the synthesised ferrocenyl derivatives had the potential to have an impact on the redox status of the parasite cells. Two different scan rates (25 and 90 mV s^−1) were used to ensure the reliability of the results, compared to ferrocene alone.

[1] = Turbidimetric solubility assay; conditions: for solubility at 2 h: kinetic from dmso stock
Description: A single phosphate buffered saline (PBS) tablet (Sigma Aldrich) was dissolved in 200 mL of distilled water (dH2O) (25 °C) to obtain a PBS solution with 0.01 M phosphate buffer, 0.14 M NaCl and 0.003 M KCl.
Stock solutions of the compounds to be tested were prepared in DMSO at a concentration of 10 mM and filtered through syringe filters. Serial dilution of the stock solutions with DMSO was then carried out in a preparatory (prep) 96-well plate giving concentrations between 0.00 and 10.0 mM (0.00, 0.25, 0.50, 1.0, 2.0, 4.0, 8.0 and 10 mM). The solutions were then further diluted into 96-well assay plates containing DMSO, PBS or HEPES buffer by pipetting 4.00 μL of solution from the prep plate to the Assay plate containing 196 μL of DMSO or buffer, giving final concentrations between 0.00 and 200 μM (0.00, 5.00, 10.0, 20.0, 40.0, 80.0, 160 and 200 μM). The assay plates were incubated at 25.0 or 37.0 °C for two hours before their UV-vis absorbance was read at 620 nm with a SPECTROstar Nano microplate reader spectrophotometer. Blank readings were used to gain corrected readings by subtracting them from obtained absorbances for each compound concentration.

[2] = Aqueous stability studies (UV-vis monitoring, ESI-MS follow-up); assay type: physicochemical; conditions: for Change of UV-vis spectrum over time (aqueous stability): PBS pH 7.4, HEPES pH 7.0 and acetate buffer pH 4.6, 37 °C, 18 hours, 50 μM
Description: The stability of complexes 14–17 in an aqueous environment was investigated. The stability experiments were performed in PBS (pH 7.4) and HEPES (pH 7.0) buffers, as well as in acidic acetate buffer (pH 4.6), by monitoring the UV-vis spectra of the compounds at 37 °C over an 18-hour period.
To further investigate the stability of 14, the PBS, HEPES and acetate buffer solutions were evaporated to dryness, and then analysed using electrospray ionisation mass spectrometry in the positive ionisation mode.
PBS and HEPES buffers were prepared as described above. An acetate buffer with a concentration of […] and a pH of 4.60 was prepared by dissolving 5.40 g (65.83 mmol) of sodium acetate in 50 mL of dH2O. The resulting solution was then titrated to a pH of 4.60 with glacial acetic acid and made up to 100 mL with dH2O.
1 mM stock solutions of the synthesised target compounds in MeOH were prepared. 1.90 mL of buffer (PBS, HEPES or acetate buffer) was pipetted into cuvettes followed by the addition 100 μL of test compound stock solutions, diluting them to a final concentration of 50 μM. The cuvettes were then stoppered, inverted to mix the solution, and placed in an Agilent Cary 3500 UV-vis spectrophotometer as fast as possible. Blank solutions in matched cuvettes were also prepared by adding 100 μL of MeOH to 1.9 mL of buffer. The solutions in all the cuvettes were stirred at 400 rpm ensure proper mixing. UV spectra were then recoded every 5 minutes for 18 hours with a spectral width of 200–1100 nm to monitor the stability of the test compounds.

[3] = tested on: RhΔKu80:mNeonGreen strain of T. gondii; assay: microbe, parasite or virus in culture; assay type: cell-based, Toxoplasma gondii
Description: Growth inhibition assays were carried out using the RhΔKu80:mNeonGreen strain of T. gondii, which expresses the mNeonGreen fluorescent protein.[56] Parasite growth inhibition was determined by measuring the fluorescence emission of parasite growth in increasing concentrations of compounds of interest.
T. gondii ΔKu80:mNeon tachyzoites were grown in human foreskin fibroblasts (HFFs) with Dulbecco's modified Eagle's medium (DMEM) supplemented with 3% heat inactivated foetal bovine serum (D3) as the culturing medium. Cells and parasites were maintained at 37 °C and 5% carbon dioxide (CO2).
EC50s were calculated as previously described.[56] Briefly, T. gondii ΔKu80:mNeon parasites were counted by haemocytometer and diluted to 25 000 parasites per mL in 40 mL of D3 media, to give an infection of 5000 parasites per well. The media from a black clear bottomed 96 well plate containing HFFs was then aspirated. 200 μL of uninfected D3 media was added to the top and bottom rows of wells (A and H) to serve as blanks. 200 μL of T. gondii containing D3 media was then added to the remaining wells. The parasites were allowed 2 hours to invade host cells, after which test compounds were added.
The media from the infected 96 well plates was then aspirated and 100 μL of D3 media added to each well, excluding column 12. The first 4 wells of column 12 were filled with 300 μL of drug supplemented D3 media, while the next 4 wells were filled with 300 μL of D3 media supplemented with a different drug. The drug supplemented D3 media was then serially diluted 1 : 3 across the plate, stopping at column 2 and disposing of the media, leaving all wells with 100 μL of media. Finally, the plates were closed and incubated at 37 °C with 5% CO2 for 4 days. After 4 days the fluorescence of each well on the plates was read at 594 nm emission using a PHERAstar FS microplate reader. Graphpad Prism 9 software was used to plot dose–response and determine inhibition of parasite growth.

T. gondii parasites = assay: Determination of ROS formation by FACS (CellROX deep red); assay type: cell-based, Toxoplasma gondii; conditions: 66 μM, 18 hours, compared with untreated parasites
Description: Once it had been established that two of the synthesised ferrocenyl benzimidazole derivatives were biologically active, their potential mode of action was explored. Given the presence of the ferrocenyl moiety, and the cyclic voltammetry results, it was of interest to investigate whether the compounds induce ROS, which may provide an explanation for their anti-parasitic activity. Thus, cells heavily infected with parasites were incubated with target compounds for 18 hours, before isolating the parasites and staining them with CellRox deep red reagent. CellRox is an oxidation sensitive dye which is non-fluorescent in its reduced state but fluoresces bright red at 665 nm upon being oxidised by ROS. FACS was then used to quantify CellROX parasite florescence.[56] Parasites were incubated with ferrocene carboxylic acid (FcCOOH), and untreated parasites were used as controls.
6 cm dishes of host cells heavily infected with T. gondii were untreated or treated with 66 μM (second highest concentration used in growth inhibition assays) of test compounds for 18 hours. The dishes were then scratched and syringed, before filtering the solution into 10 mL falcon tubes to remove cell debris. The tubes were spun down for 10 minutes at 1500 rpm. The media was then removed from the tubes, and the pellet resuspended in 200 μL of PBS buffer. For each drug, 100 μL of the resuspended pellet was then placed into 2 FACS tubes, one which would then be stained with CellROX dye, and the other 100 μL of PBS added to act as an unstained control. A 1 : 125 dilution of CellROX stock solution was performed, and 100 μL of this solution added to the FACS tubes needing staining. Stained tubes were incubated at 37 °C for at least 15 min before analysis on a BD Celesta flow cytometer. Data was obtained using FACSDiva software with parasites being gated on forward scatter, side scatter and green fluorescence. FlowJo v10 software was used to plot the geometric mean of CellRox fluorescence from at least 5000 parasites on the Cy7 channel.

HEK293T cell line = conditions: 25 μM, MTT 48 hours
Description: Human prostatic epithelial cells (PNT1A) were cultured in Rosewell Park Memorial Institute (RPMI) media supplemented with 10% heat inactivated FBS. Both cell lines were incubated at 37 °C with 5% CO2. Both cell lines were obtained from ATCC.
The cells were allowed to recover overnight before the addition of compounds.
Stock solutions of the test compounds in DMSO were prepared and serially diluted in DMSO in a 96 well plate. […] 10 μL of the test compounds in media was then pipetted into the plates containing cells in triplicate. The cells were then incubated with the test compounds for 48 hours. After incubation, 10 μL of previously prepared MTT reagent was added to each well followed by incubation of the plates for 4 hours. 100 μL of solubilising agent was then pipetted into each well, and the plates incubated overnight. After overnight incubation the plates were read using a BioTek SYNERGY HTX multimode plate reader at 595 nm. Graphpad Prism 9 software was used to plot dose–response and determine cell viability.

[4] = T. gondii ΔKu80:mNeon in HFFs, 4 days, highest concentration 100 μM, NA = not active at the maximum tested concentration, three biological replicates in triplicate, read-out: EC50
[5] = T. gondii ΔKu80:mNeon in HFFs, 4 days, highest concentration 100 μM, NA = not active at the maximum tested concentration, three biological replicates in triplicate

| SMILES | E 1/2 (Cyclic voltammetry; Run1, scan rate 25 mV s^−1) | ΔEp (Cyclic voltammetry; Run1, scan rate 25 mV s^−1) | E 1/2 (Cyclic voltammetry; Run2, scan rate 90 mV s^−1) | ΔEp (Cyclic voltammetry; Run2, scan rate 90 mV s^−1) | Solubility range ([1]; HEPES (pH 7.0), 25 °C) | Solubility class ([1]; HEPES (pH 7.0), 37 °C) | Solubility range ([1]; HEPES (pH 7.0), 37 °C) | Solubility range ([1]; PBS (pH7.4), 25 °C) | Solubility range ([1]; PBS (pH7.4), 37 °C) | Change of UV-vis spectrum over time (aqueous stability) [2] | ROS formation in treated parasites (CellRox red fluorescence) (T. gondii parasites) | also measured |
| --- | --- | --- | --- | --- | --- | --- | --- | --- | --- | --- | --- | --- |
| O=C(NCCn1c(-c2ccccc2)nc2ccccc21)[c-]1cccc1.[Fe+2].c1cc[cH-]c1 [Compound 14] | 638 mV | 89 mV | 641 mV | 75 mV | 20-40 µM and 9-18 µg/mL | poor (solubility <10 μg mL^−1 are considered to have poor solubility) | 5-10 µM and 2–4 µg/mL | 10-20 µM and 4-9 µg/mL | 10-20 µM and 4-9 µg/mL | showed reduced intensity over time |  | Stability in buffer by ESI-MS of evaporated buffer solutions ([2]; PBS, HEPES and acetate buffer, molecular ion peak present): remained intact and was stable |
| O=C(NCCn1cnc2ccccc21)[c-]1cccc1.[Fe+2].c1cc[cH-]c1 [Compound 15] | 653 mV | 105 mV | 643 mV | 78 mV | 10-20 µM and 4-7 µg/mL | moderate (a solubility of 10–60 μg mL^−1 is considered moderate) | 20-40 µM and 7–15 µg/mL | 10-20 µM and 4-7 µg/mL | 10-20 µM and 4-7 µg/mL | remained unchanged | triggered the formation of ROS | EC50 [3, 4]: 17.9 µM; Cell survival / % cell viability (HEK293T cell line): 50% |
| O=C(NCCn1cnc2ncccc21)[c-]1cccc1.[Fe+2].c1cc[cH-]c1 [Compound 16] | 632 mV | 99 mV | 642 mV | 69 mV | 20-40 µM and 7-15 µg/mL | poor (solubility <10 μg mL^−1 are considered to have poor solubility) | 10-20 µM and 4–7 µg/mL | 10-20 µM and 4-7 µg/mL | 10-20 µM and 4-7 µg/mL | remained unchanged | not |  |
| [Fe+2].c1cc[cH-]c1.c1cc[cH-]c1 [Fc, ferrocene, reference compound] | 451 mV | 108 mV | 453 mV | 83 mV |  |  |  |  |  |  |  |  |
| O=C(Cl)[c-]1cccc1.[Fe+2].c1cc[cH-]c1 [FcCOCl] |  |  |  |  |  |  |  |  |  |  |  | EC50 [3, 5]: no activity |
| O=C(O)[c-]1cccc1.[Fe+2].c1cc[cH-]c1 [FcCOOH, ferrocene carboxylic acid, reference compound] | 688 mV | 89 mV | 689 mV | 71 mV |  |  |  |  |  |  | only showed slightly more ROS present than untreated parasites | EC50 [3, 5]: no activity |
| CCc1nc(N)nc(N)c1-c1ccc(Cl)cc1 [Pyrimethamine] |  |  |  |  |  |  |  |  |  |  |  | EC50 [3, 4]: 13.8 µM; EC50 ([3]; Toxoplasma gondii, 96 h, T. gondii ΔKu80:mNeon in HFFs, 4 days, highest concentration 100 μM, NA = not active at the maximum tested concentration, three biological replicates in triplicate, read-out: EC50): 13.8 µM |
| COC(=O)[C@H]1[C@H]2C[C@@H]3c4[nH]c5cc(OC)ccc5c4CCN3C[C@H]2C[C@@H](OC(=O)c2cc(OC)c(OC)c(OC)c2)[C@@H]1OC [Reserpine, reference compound] |  |  |  |  |  |  |  |  |  |  |  | solubility at 2 h ([1]; HEPES buffer, 25 °C, pH 7, aqueous buffer): < 5 µM and < 3 µg/mL; solubility at 2 h ([1]; HEPES buffer, 37 °C, pH 7, aqueous buffer): < 5 µM and < 3 µg/mL; solubility at 2 h ([1]; PBS buffer, 25 °C, pH 7.4, aqueous buffer): < 5 µM and < 3 µg/mL; solubility at 2 h ([1]; PBS buffer, 37 °C, pH 7.4, aqueous buffer): < 5 µM and < 3 µg/mL |
| Nc1ccc(S(=O)(=O)Nc2ncccn2)cc1 [Sulfadiazine] |  |  |  |  |  |  |  |  |  |  |  | EC50 ([3]; Toxoplasma gondii, 96 h): 2.56 µM |
